Measured values taken from US11241440B2, “Dihydrooxadiazine compounds for treating infections and cancer” (VALORALIA I MÁS D, SL, priority 2016, dated 2022).

Assays:
N. cyriacigeorgica = assay: Kirby-Bauer disk diffusion susceptibility test; format: cell-based; conditions: N. cyriacigeorgica; 100 μg/disc; zone of inhibition
Aspergillus flavus = assay: EUCAST broth dilution antifungal susceptibility test (MIC); format: cell-based; conditions: 100% inhibition, 24 hours at 35° C., dilution range 64 to 0.12 mg/l
Procedure: (§1) Filamentous fungi and yeasts strains, from clinical origin, were supplied by Microbiology Service from The Princess Hospital, Madrid. They are detailed in Table III. Filamentous fungi and yeast cells suspensions in distilled water was prepared from a culture of 24-48 h, depending on species, in Sabouraud agar. Each suspension was adjusted to a fixed size inoculum of 1-5×10^8 CFU/ml with a spectrophotometer (Ferraro, M J National Committee for Clinical Laboratory Standards. 2000). Antifungal susceptibility tests were developed following the standardized methodology detailed by the European Committee on Antimicrobial Susceptibility Testing (EUCAST) documents 7.2 (method for the determination of broth dilution minimum inhibitory concentrations of antifungal agents for yeasts EDef 7.2) and 9.2 (Method for the determination of broth dilution minimum inhibitory concentrations of antifungal agents for conidia forming foulds). The compound was dissolved in DMSO and diluted with RPMI plates with 2% glucose to pH 7 with MOPS buffer. […] Plates were inoculated with a yeast suspension or filamentous fungal spores (1-5×10^5 cls/ml). The results were evaluated after 24 hours incubation at 35° C. and absorbance reading at 530 nm.

Aspergillus fumigatus = assay: as above; format: cell-based; conditions: 100% inhibition, 24 hours at 35° C., dilution range 64 to 0.12 mg/l
Procedure: as §1

Aspergillus terreus = assay: as above; format: cell-based; conditions: 100% inhibition, 24 hours at 35° C., dilution range 64 to 0.12 mg/l
Procedure: as §1

Candida parapsilosis = assay: as above; format: cell-based; conditions: 50% inhibition, 24 hours at 35° C., dilution range 64 to 0.12 mg/l
Procedure: as §1

Scedosporium prolificans = assay: as above; format: cell-based; conditions: 100% inhibition, 24 hours at 35° C., dilution range 64 to 0.12 mg/l
Procedure: as §1

PRV-NIA3 = format: cell-based, porcine pseudorabies virus (PRV); conditions: compound 2 μM
[1] = test system: XGF-G (gG-deficient PRV gIS8); format: cell-based, porcine pseudorabies virus (PRV)
HOS = assay: MTT assay; format: cell-based; conditions: Homo sapiens, 48 hours
HSV-1, strain F = conditions: compound 2 μM
[2] = test system: all tumor cell lines tested; assay: MTT assay, tumor cell lines of Table VII taken together

## CCCCCC1=NN(C(=O)CCO)OC(CCCCC)C1 (stereo not drawn) [Compound, 1-(4,6-dipentyl-5,6-dihydro-2H-1,2,3-oxadiazin-2-yl)-3-hydroxypropan-1-one]
N. cyriacigeorgica
  Activity (mm), 100 μg/disc: 35-38 mm
Aspergillus flavus
  MIC (minimum inhibitory concentration): 1
Aspergillus fumigatus
  MIC (minimum inhibitory concentration): 0.5
Aspergillus terreus
  MIC (minimum inhibitory concentration): 0.25
Candida parapsilosis
  MIC (minimum inhibitory concentration): 0.5
Scedosporium prolificans
  MIC (minimum inhibitory concentration): 0.5
PRV-NIA3
  reduction of the titer: 0.5 logarithms
[1]
  reduction of the titer: 0.7 logarithms
HOS
  IC50: 170 nM
HSV-1, strain F
  reduction of the titer: 1.5 logarithms
[2]; all tumor cell lines tested
  antitumoral activity: exhibited activity in all tumor cell lines tested
[2]; rest of the cell lines (other than CAL33 and T98G)
  concentration at which inhibition began to be relevant: 100 nM
